# Where “and” joins values, the source holds several entries; their conditions need not be identical. Equal entries are not always repeated.
# What was measured:
# [1] = tested on: Bovine Papillomavirus Type 1 (BPV-1); experiment: Inhibition of BPV-1 transformation of C127 mouse epithelial cells: pretreatment and post-treatment combined; format: cell-based
# Procedure: (§1) Experiments were performed to determine if CTC-96™ can inactivate the ability of bovine papillomavirus type 1 (BPV-1) to morphologically transform C127 mouse epithelial cells in culture. Cell-free stocks of BPV-1 were treated with CTC-96™ or placebo. In order to detect the transforming ability of BPV-1, sub-confluent cultures of C127 mouse cells are infected with a standardized inoculate of BPV-1. For the positive controls, stock virus was added to the culture medium present on the cells. The presence of morphologically transformed foci was counted after 2 weeks and then again at 3 weeks. Controls included non-infected cells (with or without drug) and untreated BPV-1.
# To further clarify the dynamics of CTC-96™ Papillomavirus interaction an experiment was performed to combine exposure of virus to the drug prior to cellular infection and exposure of infected cells to the drug. For this purpose BPV-1 was incubated with either CTC-96™ or placebo, diluted and then added to C127 Mouse Epithelial Cells in culture with the addition of CTC-96™ or placebo (Table 11). Addition of 10 μg/ml or 20 μg/ml CTC-96™ to the cell cultures was toxic to the cells. […] Pre-treatment with 50 μg/ml CTC-96™ but not placebo halved the foci number in the normal medium post-treatment control. Thus a small microbicidal effect is probable even at these low concentrations of CTC-96™. The main activity at these concentrations, however, is post-infection.
# [2] = tested on: Bovine Papillomavirus Type 1 (BPV-1); experiment: Inhibition of BPV-1 transformation of C127 mouse epithelial cells: exposure of virus to drug prior to infection; format: cell-based; conditions: duplicate values
# Procedure: as §1
# Bovine Papillomavirus Type 1 (BPV-1) was mixed with CTC-96™, incubated for 10 minutes at 37° C. and then added to the cells. It is clear that CTC-96™ can inhibit the appearance of bovine Papillomavirus type 1 (BPV-1) induced transformation of C127 mouse epithelial cells in culture (Table 9).
# [3] = tested on: Bovine Papillomavirus Type 1 (BPV-1); experiment: Inhibition of BPV-1 transformation of C127 mouse epithelial cells: exposure of cells pretreated with virus to drug; format: cell-based; conditions: CTC-96 5 μg/ml added 5 hours after virus; counted on day 12; duplicate values
# Procedure: as §1
# To further evaluate the time course of interaction between CTC-96™ and Papillomavirus the following experiment was performed. Virus was put on C127 mouse epithelial cells in culture at time 0 and incubated for 5 hours. Medium was then removed and replaced with medium plus drug. Cells were then re-fed every 2 days and the experiments counted on day 12.
# [4] = tested on: HPV-11; experiment: Therapeutic activity of CTC-96 ointment on human condylomas induced by HPV-11, HPV-11-infected external human xenograft SCID mouse model; format: in vivo, SCID mice; conditions: for Graft Size Growth, Means ± SD: thrice a week for 6 weeks on the graft
# Procedure: Two different dose levels of CTC-96™ (1%, 0.1%) in an ointment formulation and the vehicle alone were evaluated. SCID mice were grafted on each side of the dorsum with an HPV-11-infected foreskin fragment. The HPV-11-infected grafts were left to grow for 6 weeks before treatment was started and continued for 6 weeks. During the treatment phase, the drug was administered thrice a week, directly on the graft. Graft length, width, and height were measured every two weeks during the treatment phase. At the end of the study, the animals were sacrificed. The grafts were measured, recovered, and processed for histology. HPV infection in tissue sections is defined by the presence of two out of three of the following features: acanthosis, koilocytosis, or parakeratosis.
# The Graft Size Growth (GSG) index was our primary endpoint in this evaluation of CTC-96™. […] However, there is also a marked increase in the variance of the GSG in the high dose CTC-96™ group.
# In our analysis, to measure graft size growth we used a composite index that summarizes for each mouse the growth of the two grafts borne by the animal, each from a different foreskin donor. If instead we look at the growth of each individual graft, we can see that the means, medians, or variances of the graft size growth are more alike among the three treatment groups as shown in FIG. 1. The ANOVA fails to show a treatment effect on the growth of the individual grafts.
# [5] = pre-treatment 50 μg/ml CTC-96, post-treatment "μg/ml CTC-96" (figure not given)
# [6] = pre-treatment 50 μg/ml CTC-96, post-treatment normal medium
# [7] = pre-treatment 50 μg/ml CTC-96, post-treatment placebo
# [8] = pre-treatment Placebo, post-treatment 5 μg/ml CTC-96
compound,measurement,setting,value
CC(/C=C(/C)[O-])=NCCN=C(C)/C=C(/C)[O-].Cc1ncc[nH]1.Cc1ncc[nH]1.[Br-].[Co+3] [CTC-96],Focus formation,[1]; addition of 5 μg/ml CTC-96 to the cell cultures,effectively suppressed all focus formation
same,Toxicity to C127 cell cultures,[1]; addition of 10 μg/ml or 20 μg/ml CTC-96 to the cell cultures,toxic
same,"Number of Transformed Foci, Experiment 3-1",[1]; [5],0
same,"Number of Transformed Foci, Experiment 3-2",[1]; [5],0
same,"Number of Transformed Foci, Experiment 3-1",[1]; [6],71 and 46
same,"Number of Transformed Foci, Experiment 3-2",[1]; [6],46 and 41
same,"Number of Transformed Foci, Experiment 3-1",[1]; [7],65 and 61
same,"Number of Transformed Foci, Experiment 3-2",[1]; [7],39 and 62
same,"Number of Transformed Foci, Experiment 3-1",[1]; [8],0
same,"Number of Transformed Foci, Experiment 3-2",[1]; [8],0
same,Inhibition of the virus by pretreatment of the virus (microbicidal effect),[1]; pretreatment of BPV-1 with 50 μg/ml CTC-96,50-60%
same,Number of Transformed Foci at 3 weeks,"[2]; CTC-96 0.1 mg/ml mixed with BPV-1, 10 minutes at 37° C.",68 and 80
same,Number of Transformed Foci at 3 weeks,"[2]; CTC-96 0.2 mg/ml mixed with BPV-1, 10 minutes at 37° C.",80 and 82
same,Number of Transformed Foci at 3 weeks,"[2]; CTC-96 0.5 mg/ml mixed with BPV-1, 10 minutes at 37° C.",25 and 40
same,"Number of Transformed Foci, Exp. 1",[3],3 and 2
same,"Number of Transformed Foci, Exp. 2",[3],3
same,"Graft Size Growth, Median",[4]; CTC-96 0.1% ointment,60.51%
same,"Graft Size Growth, Means ± SD",[4]; CTC-96 0.1% ointment,64.53 ± 41.92%
same,"Graft Size Growth, Median",[4]; CTC-96 1% ointment,52.03%
same,"Graft Size Growth, Means ± SD",[4]; CTC-96 1% ointment,91.39 ± 127.84%
same,Effect on the growth of HPV-11-induced papillomas,"[4]; mouse, in vivo",no detectable effect
